Test results as given in paper PMC10146281, “Pharmacokinetic and Pharmacodynamic Characteristics of Pelubiprofen Tromethamine vs. Pelubiprofen in Healthy Subjects” (Pharmaceutics, 2023).

Tests used:
[1] = Study I (DW1809-102): pharmacokinetic analysis of plasma pelubiprofen (LC-MS/MS) after single oral dose; conditions: for Tmax: N = 35, median (minimum–maximum)
Description: In this study, the two independent clinical trials (Study I and II) were conducted using an identical randomized, open-label, oral, single-dose, fasted, two-sequence, four-period, crossover design. Due to the known pharmacokinetic characteristics of pelubiprofen with its large intra-subject variability, the replicated design was chosen to calculate the true intra-coefficient of variation in both studies. Study I tested 25 mg of pelubiprofen tromethamine (36.73 mg of pelubiprofen tromethamine salt; 25 mg of pelubiprofen, Daewon Pharmaceutical Co., Ltd., Seoul, Republic of Korea) against 30 mg of pelubiprofen (30.0 mg of pelubiprofen, Daewon Pharmaceutical Co., Ltd., Seoul, Republic of Korea) as the reference. Study II tested 30 mg of pelubiprofen tromethamine (44.07 mg of pelubiprofen tromethamine salt; 30 mg of pelubiprofen, Daewon Pharmaceutical Co., Ltd., Seoul, Republic of Korea) against 30 mg of pelubiprofen (30.0 mg of pelubiprofen, Daewon Pharmaceutical Co., Ltd., Seoul, Republic of Korea) as the reference. The target number of subjects in both Study I and II was set to N = 36 (N = 18 for each sequence group) (Figure 1, Table 1).
The subject screening in both Study I and Study II was performed in the four weeks ([…]) prior to the first administration (Day 1). […] In addition, the screened subjects fasted for at least 10 h, excluding drinking water, from approximately 10 p.m. until administration of the investigational drug. The randomization in both Study I and II led the subjects to receive oral administration of a single test or reference tablet with approximately 150 mL of water at each time point from approximately 8 a.m. at approximately 2 min intervals according to their numbers. The subjects in both Study I and II were prohibited from drinking water for an hour before and after the administration, except during drug administration. The post-administration blood sampling and tests were performed as scheduled. All subjects were provided with identical meals approximately 4 h after blood sampling. The subjects in both Study I and II received the blood sampling and tests for the pharmacokinetic (PK) evaluation approximately 8 h after administration. Then, they were discharged following the completion of the first period of the study.
To analyze the PK characteristics in both Study I and II, approximately 5 mL of blood was sampled before administration (0 h) and at the following time points after administration; 0.083 h (5 min), 0.167 h (10 min), 0.33 h (20 min), and 0.5, 0.75, 1, 1.5, 2, 2.5, 3, 3.5, 4, 6, and 8 h. Therefore, for each subject, the blood sampling was performed 15 times in each period, resulting in a total of 60 times. All four periods proceeded on the same schedule as the first period in both Study I and II. The wash-out period between each consecutive period was set to a minimum of four days. The subjects in both Study I and II, after completing all four periods, chose a day from Day 5 to Day 7 of the final administration in the four period for visiting the center to undergo post study visit.
The validation of the quantitative analysis of plasma pelubiprofen in this study was performed in accordance with the following guidelines: the Validation Protocol for Pelubiprofen Quantification, the domestic Standard Operating Procedure (SOP) for Bioanalyses, the Guideline of Bioanalytical Method Validation (MFDS, December 2013), and Bioanalytical Method Validation Guidance for Industry (USA FDA, 2018). The plasma pelubiprofen was pretreated using protein precipitation in a dark room at room temperature (15–25 °C) and under shielded light for the subsequent liquid chromatograph tandem mass spectrometry (LC-MS/MS) analysis. The tested items in the validation included the intra-batch and inter-batch accuracy, precision, selectivity, linearity, and stability.

[2] = Study I safety and tolerability evaluation (adverse events); assay type: in vivo, human; conditions: for adverse events: Study I, 36 subjects evaluated, all mild
Description: In both Study I and II, the safety evaluation was performed on subjects administered with the investigational drug at least once. Any clinically significant findings in the interview, physical examination, vital signs, 12-lead electrocardiogram (ECG), the clinical laboratory test, etc., during the study period were collected as adverse events, which were subsequently evaluated for the incidence of serious adverse events, severity, causal relationship, etc. All relevant data were collected through monitoring by the investigator and voluntary reporting by the subjects. To collect additional data, interview and physical examination were performed where necessary. The investigator carried out the follow-up monitoring of the subjects with adverse events until the symptoms subsided and abnormal test values returned to a healthy baseline or until a satisfactory explanation for the observed change could be provided.

[3] = Study I, healthy subjects, single oral 25 mg pelubiprofen tromethamine, fasted, N = 35, mean ± SD

Q: For `CC(C(=O)O)c1ccc(/C=C2\CCCCC2=O)cc1` (stereo not shown) [Pelubiprofen Tromethamine, pelubiprofen tromethamine], which “time after oral administration at which plasma concentration of pelubiprofen returned to baseline” value ([1]; Study I, 25 mg pelubiprofen tromethamine dose group) is on record?
A: The value was “approximately 4 h”.

Q: What about the “bioequivalence evaluation of Cmax and AUC0-t vs. 30 mg pelubiprofen” value ([1]; Study I, 25 mg pelubiprofen tromethamine, criteria 90% CI log 0.70–log 1.43 (Cmax), log 0.8–log 1.25 (AUC0-t)) of the same compound?
A: The value was “satisfied the bioequivalence study criteria”.

Q: What about the AUC0-inf [1, 3] of the same compound?
A: Its AUC0-inf is 372.12 ± 92.16 ng·h/mL.

Q: What about the AUC0-t [1, 3] of the same compound?
A: Its AUC0-t is 370.76 ± 91.86 ng·h/mL.

Q: And the CL/F [1, 3]?
A: The CL/F was 71.78 ± 19.79 L/h.

Q: What about the Cmax [1, 3] of the same compound?
A: The Cmax was 645.80 ± 237.73 ng/mL.

Q: What about the Vd/F [1, 3] of the same compound?
A: Its Vd/F is 87.43 ± 40.63 L.

Q: And the t1/2 [1, 3]?
A: Its t1/2 is 52.2 ± 23.4 min.

Q: What about the Tmax ([1]; Study I, healthy subjects, single oral 25 mg pelubiprofen tromethamine, fasted) of the same compound?
A: Its Tmax is 0.33 (0.17–1.50) h.

Q: And the Tmax ([1]; Study I, healthy subjects, single oral 25 mg pelubiprofen tromethamine, fasted, listed as pelubiprofen tromethamine)?
A: The Tmax was “approximately 0.33 h”.

Q: And the tolerability and safety ([2]; 25 mg pelubiprofen tromethamine compared to 30 mg pelubiprofen, healthy subjects, single oral dose)?
A: The tolerability and safety was “outstanding tolerability and safety”.

Q: And the adverse events ([2]; treatment of the test (25 mg pelubiprofen tromethamine))?
A: The adverse events was “one case of adverse events”.

Q: Which CL/F ([1]; Study I, healthy subjects, single oral 30 mg pelubiprofen (reference), fasted, N = 35, mean ± SD) does the source give for `CC(C(=O)O)c1ccc(/C=C2\CCCCC2=O)cc1` (stereo not shown) [Pelubiprofen, 2-[4-(oxocyclohexylidenemethyl)-phenyl] propionic acid] here?
A: The CL/F was 92.12 ± 28.68 L/h.

Q: What about the Tmax ([1]; Study I, healthy subjects, single oral 30 mg pelubiprofen (reference), fasted) of the same compound?
A: The Tmax was 0.33 (0.17–3.50) h.

Q: What about the “highest within-subject variability for Cmax” value ([1]; Study I, reference 30 mg pelubiprofen, four-period repeated crossover) of the same compound?
A: Its value is “approximately 58%”.

Q: And the AUC0-inf ([1]; human, plasma, po, 30 mg)?
A: Its AUC0-inf is 355 ± 103 ng·h/mL.

Q: And the AUC0-t ([1]; human, plasma, po, 30 mg)?
A: The AUC0-t was 352 ± 103 ng·h/mL.

Q: What about the Cmax ([1]; human, plasma, po, 30 mg) of the same compound?
A: Its Cmax is 619 ± 368 ng/mL.

Q: And the Vd/F ([1]; human, plasma, po, 30 mg)?
A: The Vd/F was 125 ± 58.8 L.

Q: What about the half-life ([1]; human, plasma, po, 30 mg) of the same compound?
A: Its half-life is 59.4 ± 32.4 min.

Q: What about the Tmax ([1]; human, plasma, po, 30 mg, Tmax, Study I, healthy subjects, single oral 30 mg pelubiprofen (reference), fasted) of the same compound?
A: The Tmax was about 19.8 min.

Q: And the adverse events ([2]; treatment of reference (30 mg pelubiprofen))?
A: The adverse events was “three cases of adverse events”.
